Measured values from patent US11884747B2, “Compstatin analogs with increased solubility and improved pharmacokinetic properties” (The Trustees of the University of Pennsylvania, priority 2018, dated 2024).
“And” between values parts separate entries of the source, which are not always exact repeats. Identical values can stand only once. Like-named read-outs stand apart in the source and are kept apart here. Marks after values point to notes of the source that are not given here.

Tests used:
[1] = test system: classical pathway of complement; assay: Classical pathway complement inhibition ELISA (C3b deposition) in normal human plasma; format: biochemical; conditions: human plasma diluted 1:40; mean of at least three experiments
Experimental: For this purpose, microtiter wells (NUNC) were coated with 50 μl of 1% ovalbumin in PBS (pH 7.4) at ambient temperature for 2 h. The wells were blocked with 200 μl of 1% BSA in PBS for 1 h, then coated with 50 μl of 1:1000 α-ovalbumin polyclonal antibody in PBS for 1 h. Between each step, the plate was washed thrice with 200 μl of 0.05% Tween 20 in PBS (PBS-T); 30 μl of VBS (Veronal buffer 1×; 5 mM veronal, pH 7.4, containing 150 mM NaCl, 0.5 mM CaCl2 and 0.5 mM MgCl2) were placed in all but the first well of each row of the 96-well plate, and 5 μM peptide solutions in VBS were prepared. […] Human plasma diluted 1:40 in VBS was incubated for 15 min with peptide of 0.005 to 2.5 μM. After washing with PBS-T, 50 μl/well of 1:1000 goat a-human C3 HRP conjugated antibody in 1% BSA in PBS was added to the wells and incubated for 1 h at room temperature. Complement fixation indicating activation was detected by the addition of HRP substrate (0.05% ABTS and 0.1% of 30% aqueous H2O2 in 0.1 M sodium citrate, pH 4.2) and read at 405 nm. The absorbance data obtained at 405 nm were translated into % inhibition, considering 100% to be equal to complement activation in the absence of peptide. The percent inhibition was plotted against the logarithm of concentrations, and the resulting data set was fitted to the equation “log(inhibitor) vs. normalized response” using GraphPad Prism 5 (La Jolla, CA). IC50 values were obtained from the fitted parameters of the mean of at least three independent experiments. Cp40 was always used as the internal control.

[2] = Pharmacokinetics after single i.v. injection; format: in vivo, cynomolgus monkeys
Experimental: FIG. 11 show graphs of peptide concentration over time in cynomolgus monkeys to which was administered a single 2 mg/kg intravenous injection of Cp40-KK (panel a), Cp40-KKK (panel b), mPEG(1 k)-Cp40 (panel c), and mPEG(3 k)-Cp40 (panel d). […]
In vivo pharmacokinetic studies were conducted, in which cynomolgus monkeys were administered single i.v. injections of mPEG(1 k)-Cp40, mPEG(3 k)-Cp40, Cp40-KK, or Cp40-KKK.

[3] = test system: complement classical pathway; assay: Classical pathway activation (C3b deposition) ELISA in human plasma with or without rabbit vitreous; format: biochemical; conditions: in the absence of vitreous
Experimental: An alternative explanation to the one presented above is that the vitreous contains additional unidentified factors that associate with the Cp40-KKK analog. To investigate whether an unidentified vitreous factor impacts the complement inhibitory activity of lysine containing compounds, complement activation assays were performed using vitreous samples. Briefly, human plasma was incubated with OVA-anti-OVA immune-complexes in the presence of serial dilutions of the Cp40-based analogs mixed with rabbit vitreous. Levels of classical pathway activation (C3b deposition) were determined by ELISA using a polyclonal anti-human C3 antibody conjugated with HRP (MP Biomedicals, Solon, OH) (FIG. 20).

[4] = pH adjusted upon addition of PBS

AUC(0-t) ([2]; cynomolgus monkey, plasma, iv, 2 mg/kg, single i.v. injection, read-out: AUC0-120h): 304 to 312 µM·h | AUC0-120 h greater than Cp40-KK ([2]; single i.v. injection): over 3.5 fold | pH (after additional lyophilization from H2O): 9.5 | pH of the peptide solution in PBS (at the stated concentration, indicator paper): 8.5 | Conc. (mg/ml) at which pH in the 7 range was observed [4]: 7 mg/ml and 7.0 mg/ml | pH [4]: 7.5*
Compound: CC[C@H](C)[C@H](NC(=O)[C@H](N)Cc1ccc(O)cc1)C(=O)N[C@H]1CSSC[C@@H](C(=O)N(C)[C@H](C(=O)N[C@@H](CCCCN)C(=O)N[C@@H](CCCCN)C(=O)N[C@@H](CCCCN)C(N)=O)[C@@H](C)CC)NC(=O)[C@H](CCCNC(=N)N)NC(=O)[C@H](Cc2c[nH]cn2)NC(=O)[C@H](C)NC(=O)CN(C)C(=O)[C@H](Cc2c[nH]c3ccccc23)NC(=O)[C@H](CC(=O)O)NC(=O)[C@H](CCC(N)=O)NC(=O)[C@H](Cc2cn(C)c3ccccc23)NC(=O)[C@H](C(C)C)NC1=O [Cp40-KKK, DTyr-Ile-[Cys-Val-Trp(Me)-Gln-Asp-Trp-Sar-Ala-His-Arg-Cys]-mlle-Lys-Lys-Lys—NH2]
IC50 [1]: 0.0817 ± 0.0053 µM | in vivo Lys cleavage in plasma ([2]; after i.v. injection): metabolized into Cp40-KK and small amounts of Cp40-K | complement classical pathway inhibitory activity [3]: inhibitory activity in a dose-dependent manner
